Experimental data taken from ChEMBL document CHEMBL1137166, “A unidirectional crosslinking strategy for HIV-1 protease dimerization inhibitors” (Bioorg Med Chem Lett, 2004).
Where a SMILES comes first, the peptide text is derived from it. [ ]: non-standard residue; d: D form. The star is where a group is joined. ξ: configuration not given here. Tyr(3-NO2) = N[C@@H](Cc1ccc(O)c([N+](=O)[O-])c1)C(=O)O; C16 diacid = O=C(O)CCCCCCCCCCCCCCC(=O)*; 1Nal = N[C@@H](Cc1cccc2ccccc12)C(=O)O; Cha = N[C@@H](CC1CCCCC1)C(=O)O; Ile(3ξ) = CCC(C)[C@H](N)C(=O)O; aThr = C[C@H](O)[C@H](N)C(=O)O; Fumaroyl = O=C(O)/C=C/C(=O)*; 12Ado = NCCCCCCCCCCCC(=O)O

Tests used:
[1] = target: T1, Human immunodeficiency virus type 1 protease (Human immunodeficiency virus 1, UniProt Q72874); assay: Inhibitory activity against Human immunodeficiency virus-1 protease
[2] = target: T1, Human immunodeficiency virus type 1 protease; assay: Binding activity towards Human immunodeficiency virus-1 protease
[3] = target: Human immunodeficiency virus type 1 protease (Human immunodeficiency virus 1) (UniProt Q72874); assay: Percent inhibition against Human immunodeficiency virus-1 protease at the concentration of 100 uM

SMILES	IC50 [1] [µM]	Ki [2] [µM]	inhibition [3] [%]
CCC(C)[C@H](NC(=O)CCCCCCCCCCCNC(=O)[C@H](NC(=O)[C@H](Cc1ccccc1)NC(=O)/C=C/C(=O)O)C(N)=O)C(=O)N[C@@H](Cc1ccccc1)C(N)=O (stereo partly drawn)	14.2	–	–
CCC(C)[C@H](NC(=O)CCCCCCCCCCCNC(=O)CNC(=O)[C@@H](CC(N)=O)NC(=O)[C@H](Cc1ccccc1)NC(=O)/C=C/C(=O)O)C(=O)N[C@@H](Cc1ccccc1)C(N)=O (stereo partly drawn)	16.8	–	–
CC(C)C[C@H](NC(=O)[C@@H](NC(=O)CCCCCCCCCCCCCCC(=O)N[C@@H](CC(N)=O)C(=O)N[C@@H](Cc1ccccc1)C(=O)O)[C@H](C)O)C(=O)N[C@@H](Cc1ccccc1)C(N)=O ({Phe-Asn-C16 diacid}-[aThr]-Leu-Phe-NH2)	5.4	3	–
NC(=O)CCCCCCCCCCCNC(=O)[C@H](Cc1ccc(O)c([N+](=O)[O-])c1)NC(=O)[C@H](CC1CCCCC1)NC(=O)/C=C/C(=O)O	20	–	–
CCC(C)[C@H](NC(=O)CCCCCCCCCCCNC(=O)[C@H](NC(=O)[C@@H](Cc1ccccc1)NC(=O)/C=C/C(=O)O)C(N)=O)C(=O)N[C@@H](Cc1ccccc1)C(N)=O (stereo partly drawn)	9.7	–	–
CC[C@H](C)[C@H](NC(=O)[C@H](CCC(N)=O)NC(=O)[C@@H]1CCCN1C(=O)CCCCCCCCCCCCCCC(=O)N[C@@H](CO)C(=O)N[C@H](C(=O)N[C@@H](CC(C)C)C(=O)N[C@@H](CC(N)=O)C(=O)N[C@@H](Cc1ccccc1)C(=O)O)[C@@H](C)O)C(=O)N[C@H](C(=O)N[C@@H](CC(C)C)C(=O)N[C@@H](Cc1c[nH]c2ccccc12)C(=O)O)[C@H](C)O	0.35	0.22	–
CCC(C)[C@H](NC(=O)CCCCCCCCCCCNC(=O)[C@@H](NC(=O)[C@@H](Cc1ccccc1)NC(=O)/C=C/C(=O)O)C(N)=O)C(=O)N[C@@H](Cc1ccccc1)C(N)=O (stereo partly drawn)	18.8	–	–
CCC(C)[C@H](NC(=O)CCCCCCCCCCCNC(=O)[C@@H](NC(=O)[C@H](Cc1ccccc1)NC(C)=O)C(N)=O)C(=O)N[C@@H](Cc1ccccc1)C(N)=O (stereo partly drawn)	–	–	15
CC(C)C[C@H](NC(=O)CCCCCCCCCCCCCCC(=O)N[C@@H](CC(N)=O)C(=O)N[C@@H](Cc1ccccc1)C(=O)O)C(=O)N[C@@H](Cc1ccccc1)C(N)=O (HELM PEPTIDE1{L.F.[am]}|PEPTIDE2{N.F}|CHEM1{[O=C(CCCCCCCCCCCCCCC(=O)[*:2])[*:1]]}$PEPTIDE1,CHEM1,1:R1-1:R1|PEPTIDE2,CHEM1,1:R1-1:R2$$$V2.0)	11	–	–
CCC(C)[C@H](NC(=O)CCCCCCCCCCCNC(=O)[C@@H](NC(=O)[C@H](Cc1ccccc1)NC(=O)CCC(=O)O)C(N)=O)C(=O)N[C@@H](Cc1ccccc1)C(N)=O (stereo partly drawn)	–	–	< 50
CCC(C)[C@H](NC(=O)CCCCCCCCCCCNC(=O)[C@@H](NC(=O)[C@@H](N)Cc1ccccc1)C(N)=O)C(=O)N[C@@H](Cc1ccccc1)C(N)=O (stereo partly drawn)	–	–	35

The remaining lines, values ahead:

IC50 [1] [µM]	Ki [2] [µM]	inhibition [3] [%]	SMILES
361	209	–	CCC(C)[C@H](NC(=O)CCCCCCCCCCCNC(=O)[C@H](Cc1ccc(O)c([N+](=O)[O-])c1)NC(=O)[C@H](CC1CCCCC1)NC(=O)/C=C/C(=O)O)C(=O)N[C@@H](Cc1cccc2ccccc12)C(N)=O (stereo partly drawn) (Fumaroyl-[Cha][Tyr(3-NO2)][12Ado][Ile(3ξ)][1Nal]-NH2)
3.7	–	–	CCC(C)[C@H](NC(=O)CCCCCCCCCCCNC(=O)[C@H](Cc1ccc(O)c([N+](=O)[O-])c1)NC(=O)[C@H](CC1CCCCC1)NC(=O)/C=C/C(=O)O)C(N)=O (stereo partly drawn)
12	4.9	–	CCC(C)[C@H](NC(=O)CCCCCCCCCCCNC(=O)[C@@H](NC(=O)[C@H](Cc1ccccc1)NC(=O)/C=C/C(=O)O)C(N)=O)C(=O)N[C@@H](Cc1ccccc1)C(N)=O (stereo partly drawn)
327	199	–	CCC(C)[C@H](NC(=O)CCCCCCCCCCCNC(=O)[C@H](Cc1ccc(O)c([N+](=O)[O-])c1)NC(=O)[C@H](CC1CCCCC1)NC(=O)/C=C/C(=O)O)C(=O)N[C@@H](Cc1ccccc1)C(N)=O (stereo partly drawn) (Fumaroyl-[Cha][Tyr(3-NO2)][12Ado][Ile(3ξ)]F-NH2)
247	222	–	CCC(C)[C@H](NC(=O)CCCCCCCCCCCNC(=O)[C@H](Cc1ccc(O)c([N+](=O)[O-])c1)NC(=O)[C@H](CC1CCCCC1)NC(=O)/C=C/C(=O)O)C(=O)N[C@@H](Cc1ccc(O)c([N+](=O)[O-])c1)C(N)=O (stereo partly drawn) (Fumaroyl-[Cha][Tyr(3-NO2)][12Ado][Ile(3ξ)][Tyr(3-NO2)]-NH2)
–	–	< 20	NC(=O)[C@H](Cc1ccc(O)c([N+](=O)[O-])c1)NC(=O)[C@H](CC1CCCCC1)NC(=O)/C=C/C(=O)O
